Assay results from ChEMBL document CHEMBL1201862, “PubChem BioAssay data set” (2004).
Activity calls are given as the source filed them.

Experiments:
[1] = target: T1, Caspase-3 (Homo sapiens, UniProt P42574); assay type: functional;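 also: Dose-response selectivity test against caspase-3 for candidate inhibitors of sentrin-specific proteases (SENPs)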
T1 sequence (P42574 whole entry): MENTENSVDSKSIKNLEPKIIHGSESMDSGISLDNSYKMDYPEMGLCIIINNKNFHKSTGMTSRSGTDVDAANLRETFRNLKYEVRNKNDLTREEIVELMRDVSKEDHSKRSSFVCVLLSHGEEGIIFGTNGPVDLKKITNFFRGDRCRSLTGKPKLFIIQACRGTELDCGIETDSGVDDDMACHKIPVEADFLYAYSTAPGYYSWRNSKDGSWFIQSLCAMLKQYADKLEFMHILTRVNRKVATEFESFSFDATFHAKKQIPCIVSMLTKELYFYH

[2] = target: T2, Sentrin-specific protease 6 (Homo sapiens, UniProt Q9GZR1); assay type: functional;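 also: Luminescence-based dose-response confirmatory assay of SENP6 inhibition, following up an ultra-high-throughput screen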
T2 sequence (Q9GZR1 whole entry): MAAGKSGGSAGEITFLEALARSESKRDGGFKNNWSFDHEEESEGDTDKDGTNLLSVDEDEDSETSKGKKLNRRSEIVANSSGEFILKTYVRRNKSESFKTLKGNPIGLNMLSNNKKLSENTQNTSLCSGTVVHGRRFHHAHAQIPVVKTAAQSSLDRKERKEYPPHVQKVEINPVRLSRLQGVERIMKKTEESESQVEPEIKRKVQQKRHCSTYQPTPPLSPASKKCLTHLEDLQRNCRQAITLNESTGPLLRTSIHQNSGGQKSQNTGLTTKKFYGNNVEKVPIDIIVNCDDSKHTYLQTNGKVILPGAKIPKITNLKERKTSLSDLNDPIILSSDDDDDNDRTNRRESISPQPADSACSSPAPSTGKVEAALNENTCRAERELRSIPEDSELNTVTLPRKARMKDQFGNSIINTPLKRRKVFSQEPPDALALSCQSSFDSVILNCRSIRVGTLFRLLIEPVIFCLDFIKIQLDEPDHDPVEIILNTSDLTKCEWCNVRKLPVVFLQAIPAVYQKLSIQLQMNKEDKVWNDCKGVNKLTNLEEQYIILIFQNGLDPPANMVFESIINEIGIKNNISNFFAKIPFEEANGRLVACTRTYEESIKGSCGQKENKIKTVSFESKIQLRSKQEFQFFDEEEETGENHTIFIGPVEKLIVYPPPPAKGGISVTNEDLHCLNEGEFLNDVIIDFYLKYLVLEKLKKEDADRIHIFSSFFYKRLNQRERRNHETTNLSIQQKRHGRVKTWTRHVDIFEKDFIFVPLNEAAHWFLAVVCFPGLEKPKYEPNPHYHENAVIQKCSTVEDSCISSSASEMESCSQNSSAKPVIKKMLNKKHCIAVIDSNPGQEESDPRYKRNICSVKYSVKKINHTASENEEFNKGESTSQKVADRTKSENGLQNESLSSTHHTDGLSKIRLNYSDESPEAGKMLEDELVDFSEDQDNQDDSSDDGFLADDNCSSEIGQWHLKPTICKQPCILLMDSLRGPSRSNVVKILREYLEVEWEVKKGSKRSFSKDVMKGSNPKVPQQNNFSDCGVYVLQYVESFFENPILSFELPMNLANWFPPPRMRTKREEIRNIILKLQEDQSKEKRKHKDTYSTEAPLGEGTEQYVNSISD

[3] = target: T3, Sentrin-specific protease 8 (Homo sapiens, UniProt Q96LD8); assay type: functional;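 also: luminescence read-out of SENP8 inhibition, dose-response confirmation following an ultra-high-throughput screen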
T3 sequence (Q96LD8 whole entry): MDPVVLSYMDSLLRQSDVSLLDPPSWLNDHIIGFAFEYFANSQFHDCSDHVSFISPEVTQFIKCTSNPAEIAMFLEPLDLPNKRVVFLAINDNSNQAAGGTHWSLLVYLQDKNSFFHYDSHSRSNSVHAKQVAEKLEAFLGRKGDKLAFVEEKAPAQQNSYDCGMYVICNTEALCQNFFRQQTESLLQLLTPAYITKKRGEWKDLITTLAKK

[4] = target: T4, Protein skinhead-1 (Caenorhabditis elegans, UniProt P34707); assay type: functional
T4 sequence (P34707 whole entry): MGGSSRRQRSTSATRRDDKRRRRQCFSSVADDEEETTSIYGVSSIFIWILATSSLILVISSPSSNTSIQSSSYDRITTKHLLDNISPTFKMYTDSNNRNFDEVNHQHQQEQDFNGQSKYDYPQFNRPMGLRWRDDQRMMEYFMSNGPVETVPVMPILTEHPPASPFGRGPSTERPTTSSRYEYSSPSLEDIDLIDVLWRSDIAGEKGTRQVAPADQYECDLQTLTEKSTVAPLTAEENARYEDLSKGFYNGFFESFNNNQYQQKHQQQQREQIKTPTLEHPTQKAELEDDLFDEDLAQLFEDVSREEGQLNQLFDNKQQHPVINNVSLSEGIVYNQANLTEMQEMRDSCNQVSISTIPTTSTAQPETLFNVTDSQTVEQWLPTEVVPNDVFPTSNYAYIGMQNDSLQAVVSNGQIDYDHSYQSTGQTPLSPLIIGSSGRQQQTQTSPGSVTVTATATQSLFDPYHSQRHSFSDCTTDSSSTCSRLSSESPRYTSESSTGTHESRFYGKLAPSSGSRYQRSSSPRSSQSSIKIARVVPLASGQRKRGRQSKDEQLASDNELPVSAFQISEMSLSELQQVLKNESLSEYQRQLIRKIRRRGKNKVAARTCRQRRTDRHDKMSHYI

[5] = target: T5, Sentrin-specific protease 7 (Homo sapiens, UniProt Q9BQF6); assay type: functional;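 also: Luminescence-based dose-response confirmation of ultra-high-throughput screening hits, measuring inhibition of SENP7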
T5 sequence (Q9BQF6 whole entry): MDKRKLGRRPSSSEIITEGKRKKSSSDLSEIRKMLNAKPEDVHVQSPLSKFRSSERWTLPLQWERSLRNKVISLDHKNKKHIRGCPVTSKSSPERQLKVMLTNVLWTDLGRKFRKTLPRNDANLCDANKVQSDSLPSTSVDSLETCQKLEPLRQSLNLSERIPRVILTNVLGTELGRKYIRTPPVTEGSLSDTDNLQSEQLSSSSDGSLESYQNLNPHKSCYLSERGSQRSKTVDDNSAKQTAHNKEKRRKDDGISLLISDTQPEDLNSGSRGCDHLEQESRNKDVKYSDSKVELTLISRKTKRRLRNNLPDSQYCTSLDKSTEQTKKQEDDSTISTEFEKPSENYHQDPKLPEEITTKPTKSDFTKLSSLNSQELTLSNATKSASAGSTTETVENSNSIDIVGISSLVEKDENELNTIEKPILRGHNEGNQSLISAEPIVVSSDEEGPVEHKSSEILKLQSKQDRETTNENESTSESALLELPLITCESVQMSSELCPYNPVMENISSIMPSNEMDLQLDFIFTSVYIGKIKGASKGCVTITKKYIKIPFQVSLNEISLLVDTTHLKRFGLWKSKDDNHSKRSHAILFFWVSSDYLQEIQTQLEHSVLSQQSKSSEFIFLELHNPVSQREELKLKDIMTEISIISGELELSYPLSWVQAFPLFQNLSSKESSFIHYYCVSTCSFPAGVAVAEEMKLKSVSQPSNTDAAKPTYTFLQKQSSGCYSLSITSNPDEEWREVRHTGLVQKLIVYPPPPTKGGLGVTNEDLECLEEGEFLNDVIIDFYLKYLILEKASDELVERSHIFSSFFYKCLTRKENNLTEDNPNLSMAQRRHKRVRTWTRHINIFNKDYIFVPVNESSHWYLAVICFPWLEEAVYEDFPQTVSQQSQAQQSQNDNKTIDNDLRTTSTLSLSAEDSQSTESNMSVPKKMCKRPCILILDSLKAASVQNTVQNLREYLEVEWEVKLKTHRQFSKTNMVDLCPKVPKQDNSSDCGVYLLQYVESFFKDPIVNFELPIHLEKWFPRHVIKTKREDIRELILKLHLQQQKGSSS

[6] = target: T6, High affinity choline transporter 1 (Homo sapiens, UniProt Q9GZV3); experiment: human choline transporter blockers, potency – cell-based, 5-point CRC, membrane potential dye, dose response (AID 504840); assay type: functional
T6 sequence (Q9GZV3 whole entry): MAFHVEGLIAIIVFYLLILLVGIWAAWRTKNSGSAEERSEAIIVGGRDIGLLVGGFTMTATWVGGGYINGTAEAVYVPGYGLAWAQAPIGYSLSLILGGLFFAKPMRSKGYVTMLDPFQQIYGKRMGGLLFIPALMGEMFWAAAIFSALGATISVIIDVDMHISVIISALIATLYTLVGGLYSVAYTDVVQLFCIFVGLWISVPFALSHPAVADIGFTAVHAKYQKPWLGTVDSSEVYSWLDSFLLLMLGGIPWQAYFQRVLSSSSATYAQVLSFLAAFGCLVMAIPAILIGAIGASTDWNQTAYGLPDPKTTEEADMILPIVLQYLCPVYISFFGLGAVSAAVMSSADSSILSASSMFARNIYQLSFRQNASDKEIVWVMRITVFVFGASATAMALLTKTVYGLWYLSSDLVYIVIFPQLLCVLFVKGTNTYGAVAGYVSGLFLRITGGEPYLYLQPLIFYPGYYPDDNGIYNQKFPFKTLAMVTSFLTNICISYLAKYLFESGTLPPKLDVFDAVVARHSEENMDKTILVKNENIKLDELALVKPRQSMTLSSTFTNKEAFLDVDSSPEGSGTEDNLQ

[7] = target: T6, High affinity choline transporter 1; experiment: human choline transporter blockers, potency – cell-based, 10-point CRC, membrane potential dye, dose response (AID 588401); assay type: functional;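 also: membrane potential dye fluorescence of choline-evoked depolarization via CHT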
[8] = target: T7, RNA-binding protein pos-1 (Caenorhabditis elegans, UniProt G5EF15); experiment: disruptors of C. elegans POS-1 RNA interaction – biochemical, fluorescence polarization, dose response (AID 1964);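 also: purified POS-1 fused to maltose binding protein made in E. coli; potency of compounds blocking POS-1 binding to fluorescent RNA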
T7 sequence (G5EF15 whole entry): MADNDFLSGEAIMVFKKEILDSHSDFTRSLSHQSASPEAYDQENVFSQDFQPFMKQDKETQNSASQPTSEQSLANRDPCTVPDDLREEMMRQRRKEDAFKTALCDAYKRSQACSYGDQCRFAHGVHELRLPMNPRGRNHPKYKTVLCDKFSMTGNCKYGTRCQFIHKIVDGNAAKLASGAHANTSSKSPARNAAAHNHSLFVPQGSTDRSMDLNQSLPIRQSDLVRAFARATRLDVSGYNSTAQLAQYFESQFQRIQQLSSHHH

[9] = target: T8, Zinc finger protein mex-5 (Caenorhabditis elegans, UniProt Q9XUB2); experiment: potency of MEX-5 RNA-binding blockers – biochemical, C. elegans, fluorescence polarization, dose response (AID 1960)
T8 sequence (Q9XUB2 whole entry): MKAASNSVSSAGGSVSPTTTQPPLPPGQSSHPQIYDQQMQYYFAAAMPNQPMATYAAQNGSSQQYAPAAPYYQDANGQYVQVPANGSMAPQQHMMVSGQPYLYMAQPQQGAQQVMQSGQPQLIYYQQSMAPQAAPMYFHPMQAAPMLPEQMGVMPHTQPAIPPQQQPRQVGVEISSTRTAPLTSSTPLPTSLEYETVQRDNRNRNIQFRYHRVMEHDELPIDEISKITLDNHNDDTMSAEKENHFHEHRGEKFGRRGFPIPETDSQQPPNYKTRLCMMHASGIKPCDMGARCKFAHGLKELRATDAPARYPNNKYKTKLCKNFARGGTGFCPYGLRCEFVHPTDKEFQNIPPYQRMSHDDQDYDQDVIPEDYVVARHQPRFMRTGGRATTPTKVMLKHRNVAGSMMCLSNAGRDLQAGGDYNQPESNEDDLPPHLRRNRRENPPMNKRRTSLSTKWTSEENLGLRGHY

| IC50 [1] | IC50 [2] | IC50 [4] | IC50 [5] | IC50 [6] | IC50 [7] | EC50 [8] | EC50 [9] | Structure (SMILES) | IC50 [3] |
| --- | --- | --- | --- | --- | --- | --- | --- | --- | --- |
| 3.19 µM (active) | 3.19 µM (active) | > 100 µM (inactive) | 2.65 µM (active) |  |  |  |  | Clc1ccc(-c2nnc(-c3ccccc3Cl)o2)cc1 | 8.03 µM (active) |
| > 100 µM (inactive) | > 100 µM (inactive) |  | > 100 µM (inactive) |  |  |  |  | O=C(/C=C/c1ccco1)Nc1ccc(N2CCCC2)cc1 | > 100 µM (inactive) |
|  |  |  |  | 8.88 µM (active) | 6.23 µM (active) | > 300 µM (inconclusive) | 7.57 µM (inconclusive) | Cc1n[nH]c(C)c1Sc1ccccc1/N=C/c1cc(Cl)cc([N+](=O)[O-])c1O |  |

Further lines, the compound ahead of its results:

| Structure (SMILES) | IC50 [1] | IC50 [2] | IC50 [4] | IC50 [5] | IC50 [6] | IC50 [7] | EC50 [8] | EC50 [9] | IC50 [3] |
| --- | --- | --- | --- | --- | --- | --- | --- | --- | --- |
| O=C(C[n+]1cccc(Br)c1)c1ccc(-c2ccccc2)cc1 |  |  |  |  | 2.83 µM (active) | 1 µM (active) |  |  |  |
| CCC(C)c1ccc(NC(S)=NC(C)C2CCCO2)cc1 (stereo unspecified) |  |  |  |  | 5.01 µM (active) | 4.09 µM (active) |  |  |  |
| Brc1ccc(/C=N/Nc2ccccn2)cc1 | 15.8 µM (active) | 4.07 µM (active) |  | 2.96 µM (active) |  |  |  |  | > 100 µM (inactive) |
